Data from patent US9393221B2, “Methods and compounds for reducing intracellular lipid storage” (THE GENERAL HOSPITAL CORPORATION, priority 2011, dated 2016).
Where a name gives a salt, the structure may show the parent alone.

System: ATGL-KO iPSCs
Experiment: High throughput iPSC chemical screening, Oil Red O (ORO) lipid accumulation; on Z-score: test concentration or dose not given here
Type: cell-based, mouse
Conditions: not given

Molecule | Z-score
O=C(O)C1CCCNC1 (racemic) [(±)-Nipecotic acid] | 0.6655

Same assay, conditions: glycolytic switch compounds

Molecule | Rank in normalized ORO score from screen
CN(C/C=C/c1ccccc1)Cc1cccc2ccccc12 [Naftifine hydrochloride] | 383

Same assay, conditions: normalized ORO level vs DMSO-treated cells; compound present during 7 days differentiation, 96-well; negative = decrease in lipid accumulation

Molecule | Z-score
CNCC(O)c1ccc(O)c(OC)c1.Cl (stereo not drawn) [Metanephrine hydrochloride DL] | −1.0419
CO[C@@H]1[C@@H](O[C@@H]2O[C@H](C)[C@@H](O[C@H]3C[C@@](C)(O)[C@@H](OC(=O)CC(C)C)[C@H](C)O3)[C@H](N(C)C)[C@H]2O)[C@@H](CC=O)C[C@@H](C)[C@@H](O)/C=C/C=C/C[C@@H](C)OC(=O)C[C@H]1OC(C)=O [Josamycin] | −0.5964
CCN(CC)C(C)CN1c2ccccc2Sc2ccccc21 (stereo not shown) [Ethopropazine hydrochloride] | −1.7382
CC[N+]1(C)[C@@H]2CC[C@H]1CC(OC(=O)[C@@H]1CC[C@@](C(=O)OC3C[C@H]4CC[C@@H](C3)[N+]4(C)CC)(c3ccccc3)c3ccccc31)C2.[Cl-].[Cl-] (stereo partly drawn) [beta-Belladonnine dichloroethylate] | −0.7978
CCN(CC)CCCC(C)Nc1c2ccc(Cl)cc2nc2ccc(OC)cc12 (stereo not shown) [Quinacrine dihydrochloride dihydrate] | 0.141
CCCCOc1ccc(C(=O)CCN2CCCCC2)cc1 [Dyclonine hydrochloride] | −1.4276
Cc1ccc(S(=O)(=O)NC(=O)NN2CC3CCCC3C2)cc1 (stereo not shown) [Gliclazide] | 0.2404
CC(C)OC(=O)C(C)(C)Oc1ccc(C(=O)c2ccc(Cl)cc2)cc1 [Fenofibrate] | −1.6051
CCOC(=O)C1=C(C)NC(C)=C(C(=O)OC)C1c1cccc(Cl)c1Cl (stereo not shown) [Felodipine] | 1.337
NC(=O)c1cc[n+](CC2=C(C(=O)O)N3C(=O)[C@@H](NC(=O)[C@@H](c4ccccc4)S(=O)(=O)[O-])[C@H]3SC2)cc1 [Cefsulodin sodium salt] | −1.1155
C[N+]1(C)CCOC(O)(c2ccc(-c3ccc(C4(O)C[N+](C)(C)CCO4)cc3)cc2)C1.[Br-].[Br-] (stereo not shown) [Hemicholinium bromide] | 2.91
CN(C)CCOC(c1ccccc1)c1ccccc1.Cn1c(=O)c2[nH]c(Cl)nc2n(C)c1=O [Dimenhydrinate] | −0.7776
O=C(c1ccccc1)c1ccc2n1CCC2C(=O)O (stereo not shown) [Ketorolac tromethamine] | −0.8373
Cc1cc(-c2ccccc2)nnc1NCCN1CCOCC1 [Minaprine dihydrochloride] | 0.429
CCc1oc2ccccc2c1C(=O)c1cc(Br)c(O)c(Br)c1 [Benzbromarone] | −0.349
O=C(O)[C@H](O)[C@@H](O)[C@H](O[C@@H]1O[C@H](CO)[C@H](O)[C@H](O)[C@H]1O)[C@H](O)CO [Lactobionic acid] | −0.5092
CC(=O)Nc1cc2ccccc2oc1=O [3-Acetamidocoumarin] | 0.06786
CN1CCN(CCCN2c3ccccc3Sc3ccc(C(F)(F)F)cc32)CC1 [Trifluoperazine dihydrochloride] | 0.5386
COc1ccn(C)c(=O)c1C#N [Ricinine] | −1.4299
CCCNCC(O)COc1ccccc1C(=O)CCc1ccccc1 (stereo not shown) [Propafenone hydrochloride] | −0.6438
O=C1C=C2C=C[C@@H]3C[C@@]2(O1)[C@H]1CCCCN31 [Securinine] | −0.5036
CC1=NS(=O)(=O)c2cc(Cl)ccc2N1 [Diazoxide] | 0.5969
Cc1c(OCC(F)(F)F)ccnc1C[S+]([O-])c1nc2ccccc2[nH]1 (stereo not shown) [Lansoprazole] | −0.4696
c1ccc2c(c1)CCCc1cc(NCCN3CCOCC3)nnc1-2 [SR-95639A] | −0.7703
Cc1nnc(SCC2=C(C(=O)O)N3C(=O)[C@@H](NC(=O)Cn4cnnn4)[C@H]3SC2)s1 [Cefazolin sodium salt] | −0.8698

Molecule | Z-score
C=CCSCC1Nc2cc(Cl)c(S(N)(=O)=O)cc2S(=O)(=O)N1 (stereo not shown) [Althiazide] | 0.2816
Cc1cnc(C(=O)NCCc2ccc(S(=O)(=O)NC(=O)NC3CCCCC3)cc2)cn1 [Glipizide] | −0.2981
CCCOc1ccc(C(=O)OCCN(CC)CC)cc1N [Proparacaine hydrochloride] | 0.9367
CC(=O)OCC1=C(C(=O)O)N2C(=O)[C@@H](N)[C@H]2SC1 [Cephalosporanic acid, 7-amino] | 0.3224
CCN(CC)CCNC(=O)c1ccc(N)cc1 [Procainamide hydrochloride] | −0.2319
CN(C/C=C/c1ccccc1)Cc1cccc2ccccc12 [Naftifine hydrochloride] | −0.6354
CCOC(=O)C1=C(C)NC(C)=C(C(=O)OC)C1c1cccc([N+](=O)[O-])c1 (stereo not shown) [Nitrendipine] | −1.7782
CN[C@H]1CC[C@@H](c2ccc(Cl)c(Cl)c2)c2ccccc21 [Sertraline hydrochloride] | −1.6299
COc1ccc2[nH]cc(CCNC(C)=O)c2c1 [Melatonin] | 0.08162
Avermectin B1 | −0.9704
CC(N/C(=N\C#N)Nc1ccncc1)C(C)(C)C (stereo not shown) [Pinacidil] | 0.3162
CC1=C(/C=C/C(C)=C/C=C/C(C)=C/C(=O)O)C(C)(C)CCC1 [Retinoic acid] | −0.7042
CC[C@@H](CO)NCCN[C@@H](CC)CO [Ethambutol dihydrochloride] | −0.6303
CCCC1O[C@@H]2C[C@H]3[C@@H]4CCC5=CC(=O)C=C[C@]5(C)[C@H]4[C@@H](O)C[C@]3(C)[C@]2(C(=O)CO)O1 (stereo partly shown) [Budesonide] | 19.1411
Cc1c(-c2ccccc2)oc2c(C(=O)OCCN3CCCCC3)cccc2c1=O [Flavoxate hydrochloride] | 0.3535
C[C@]12CC[C@@H]3c4ccc(O)cc4CC[C@H]3[C@@H]1CC[C@@H]2O [Estradiol-17 beta] | −0.9541
Cl.NCC(O)c1ccc(O)cc1 (racemic) [(+,−)-Octopamine hydrochloride] | 0.9737
COc1cc2cc3c4cc(OC)c(OC)cc4cc[n+]3c(C)c2cc1OC.O.[Cl-] [Coralyne chloride hydrate] | 7.275
NC(=NCc1ccccc1)NC(=O)c1nc(Cl)c(N)nc1N [Benzamil hydrochloride] | −1.083
CC1(C)NC(=O)N(c2ccc([N+](=O)[O-])c(C(F)(F)F)c2)C1=O [Nilutamide] | −1.5582
CC(O)Cn1cnc2c1c(=O)n(C)c(=O)n2C (stereo not shown) [Proxyphylline] | −0.7317
CC1(C)O[C@@H]2C[C@H]3[C@@H]4CCC5=CC(=O)CC[C@]5(C)[C@@]4(F)[C@@H](O)C[C@]3(C)[C@]2(C(=O)CCl)O1 [Halcinonide] | −0.7085
CCN1C(=O)NC(c2ccccc2)C1=O (stereo not shown) [Ethotoin] | −0.7327
COc1ccc(OC)c(C(O)C(C)N)c1 (stereo not shown) [Methoxamine hydrochloride] | 0.4239
CC(CN1c2ccccc2Sc2ccccc21)N(C)C (stereo not shown) [Promethazine hydrochloride] | −1.4251

Molecule | Z-score
CN(C)CCOC(=O)C(c1ccccc1)C1(O)CCCC1 (stereo not shown) [Cyclopentolate hydrochloride] | 1.252
CC(C(=O)O)c1cccc(C(=O)c2ccccc2)c1 (stereo not shown) [Ketoprofen] | −0.219
CN/C(=N/CCSCc1nc[nH]c1C)NC#N [Cimetidine] | −0.2141
CN1[C@@H]2CC[C@H]1C[C@@H](OC(=O)[C@H](CO)c1ccccc1)C2 [Hyoscyamine (L)] | 1.204
C[C@@H]1CN([C@H]2CC[C@](C#N)(c3ccc(F)cc3)CC2)CC[C@]1(C(=O)O)c1ccccc1 [Levocabastine hydrochloride] | 1.078
C[C@]12CC[C@H](O)C[C@H]1CC[C@@H]1[C@@H]2CC[C@]2(C)[C@@H](C3=CC(=O)OC3)CC[C@]12O [Digitoxigenin] | −0.9264
CCn1cc(C(=O)O)c(=O)c2ccc(C)nc21 [Nalidixic acid sodium salt hydrate] | −0.4868
C[C@H]1CC[C@]2(NC1)O[C@H]1C[C@H]3[C@@H]4CC[C@H]5C[C@@H](O)CC[C@]5(C)[C@H]4CC[C@]3(C)[C@H]1[C@@H]2C [Tomatidine] | −0.7378
CC(=O)O[C@H]1C[C@@H]2CC[C@@H]3[C@H](CC[C@@]4(C)[C@H]3C[C@H]([N+]3(C)CCCCC3)[C@@H]4OC(C)=O)[C@@]2(C)C[C@@H]1[N+]1(C)CCCCC1 [Pancuronium bromide] | 0.2708
CCN(CC)CCc1nc(-c2ccccc2)no1.O=C(O)CC(O)(CC(=O)O)C(=O)O [Oxalamine citrate salt] | −1.3452
CN1CCN(C(c2ccccc2)c2ccccc2)CC1 [Cyclizine hydrochloride] | −0.9231
Pizotifen malate | −1.2994
S(−)Eticlopride hydrochloride | −0.7335
CNNCc1ccc(C(=O)NC(C)C)cc1 [Procarbazine hydrochloride] | 1.675
Nc1ccc(C(=O)NCC(=O)O)cc1 [Aminohippuric acid] | −1.1341
Cc1cccc(C)c1OCC(C)N (stereo not shown) [Mexiletine hydrochloride] | 1.054
COc1ccc([C@@H]2Sc3ccccc3N(CCN(C)C)C(=O)[C@@H]2OC(C)=O)cc1 [Diltiazem hydrochloride] | −0.974
C[C@H]1[C@H](NC(=O)/C(=N\OC(C)(C)C(=O)O)c2csc(N)n2)C(=O)N1S(=O)(=O)O [Aztreonam] | 0.1728
CC(C)(O/N=C(\C(=O)N[C@@H]1C(=O)N2C(C(=O)[O-])=C(C[n+]3ccccc3)CS[C@H]12)c1csc(N)n1)C(=O)O [Ceftazidime pentahydrate] | 0.00611
Cc1c2ccncc2c(C)c2c1[nH]c1ccccc12 [Ellipticine] | 36.711
CS(=O)(=O)Nc1ccc([N+](=O)[O-])cc1Oc1ccccc1 [Nimesulide] | −1.0153
C[C@H]1O[C@@H](O[C@H]2[C@@H](O)C[C@H](O[C@H]3[C@@H](O)C[C@H](O[C@H]4CC[C@@]5(C)[C@H](CC[C@@H]6[C@@H]5C[C@@H](O)[C@]5(C)[C@@H](C7=CC(=O)OC7)CC[C@]65O)C4)O[C@@H]3C)O[C@@H]2C)C[C@H](O)[C@@H]1O [Digoxin] | −0.815
C[C@H](CS)C(=O)N1CCC[C@H]1C(=O)O [Captopril] | −0.2654
OC[C@H]1O[C@@H](Oc2ccc(O)cc2)[C@H](O)[C@@H](O)[C@@H]1O [Arbutin] | 0.1806
